{"source": "paper PMC10326281", "about": "“Insights into the mechanisms governing P01 scorpion toxin effect against U87 glioblastoma cells oncogenesis” (Frontiers in Pharmacology, 2023)", "format_in_all_cases": "cell-based, human", "key": {"[1]": {"tested_on": "SK2 currents of U87 cells", "assay": "Whole-cell patch clamp, K+ currents of U87 cells", "conditions": "P01 125 pM vs Leidab-7 50 nM, ns between treatments", "excerpt": "For U87 cells, whole-cell K^+ currents were generated by stepwise 8 mV depolarizing pulses from a constant holding potential of −90 up to +60 mV. The composition of extracellular solution is the same as that described above and the intracellular pipette solution is as follows in mM: K-glutamate 125, KCl 20, MgCl2 1, Mg-ATP 1, HEPES 10, CaCl2 0.7, EGTA 1, and pH was adjusted to 7.2 with KOH. The pCa is of 6.4 (10^−6.4 M of calcium concentration). Leidab-7 (Tocris, France) was used as reference peptide to selectively block SK2 currents in U87 cells."}, "[2]": {"tested_on": "LS174 colon adenocarcinoma cells", "assay": "Cell migration assay (modified Boyden chamber), LS174", "conditions": "50 μg/mL, 5 h, collagen type I 50 μg/mL coating, n = 3", "excerpt": "(§1) The ATCC (American Type Culture Collection, Rockville, MD, United States) cancer cell lines U87 (glioblastoma), MDA-MB231 (breast cancer) and LS174 (colon adenocarcinoma) were routinely cultured in DMEM supplemented with 10% fœtal bovine serum (FBS), 1% l-glutamine and 100 IU/mL penicillin/streptomycin. […] Rat SK2 cDNA cloned into pJA5 plasmid was a gift from Dr. Skolnik (university Langone Medical center, New York). Human SK3 cDNA cloned into Pipru vector was a king gift from Pr. Soriani (Université Côte d’Azur, CNRS, Inserm, Nice, France).\nCell migration assay was performed using modified Boyden chamber (NeuroProbe Inc., Bethesda, MD, United States) as previously described ([Sarray et al., 2007]). Membranes were coated with fibrinogen (Fg) (50 μg/mL), fibronectin (Fn) (10 μg/mL), collagen type I (Coll-I) (50 μg/mL) for U87, MDA-MB231 and LS174 cells respectively, for 2 h at 37°C. Cells were harvested as a single cell suspension (10^6 cells/mL) and treated with P01 at 50 μg/mL. Then added to pre-coated membranes and allowed to migrate for 5 h at 37°C in Boyden chamber. Cells were fixed on the underside of the membrane, stained by 0.1% crystal violet and migration was quantified by measuring the absorbance at 560 nm using a spectrophotometer (Thermo-Multiskan EX, Shanghai, China)."}, "[3]": {"tested_on": "LS174 colon adenocarcinoma cells", "assay": "Cell adhesion assay, LS174", "conditions": "data not shown", "excerpt": "as §1\nAdhesion assays were performed as previously described by ([Sarray et al., 2007]). Glioblastoma U87 cells in suspension (10^6 cells/mL) were treated with 50 μg/mL of P01 and deposited on wells coated with purified extracellular matrix (ECM): Fg at 50 μg/mL; Fn at 10 μg/mL; Coll-I at 50 μg/mL; laminin (Lam) at 15 μg/mL or poly-L-lysine (PL) at 20 μg/mL for U87. MDA-MB231 and LS174 cells were also used in their adequate ECM: Fg and Coll-I respectively. They were incubated to adhere to the substrate for 2 h or 24 h at 37°C. After washing, attached cells were fixed, stained by 0.1% crystal violet, lysed with 1% SDS and quantified by measuring absorbance at 560 nm. The specific adhesion is obtained by subtracting the absorbance obtained in the absence of adhesion substrate (no specific control). […]"}}, "note": "Where a SMILES comes first, the peptide text is derived from it. Bridges are numbered along the chain shown (N, C = ends).", "data": [{"smiles": "CC[C@H](C)[C@H](NC(=O)[C@@H]1CCCN1C(=O)[C@H](CCC(=O)O)NC(=O)[C@@H]1CSSC[C@@H]2NC(=O)[C@H](Cc3c[nH]cn3)NC(=O)[C@H](CCC(=O)O)NC(=O)[C@@H]3CCCN3C(=O)[C@@H]3CSSC[C@H](NC(=O)[C@H](CCCCN)NC(=O)[C@H](CC(=O)O)NC(=O)[C@H](CC(N)=O)NC(=O)[C@H](CC(=O)O)NC(=O)[C@H](CSSC[C@H](NC(=O)[C@H](CO)NC(=O)[C@@H](N)C(C)C)C(=O)N[C@@H](CCC(=O)O)C(=O)N[C@@H](CC(=O)O)C(=O)N3)NC(=O)[C@H](CCCCN)NC(=O)[C@H](C)NC(=O)[C@H](CCC(N)=O)NC(=O)[C@H](C)NC(=O)[C@H](CCCCN)NC(=O)[C@H](CCC(N)=O)NC(=O)[C@H]([C@@H](C)O)NC(=O)[C@H](CO)NC2=O)C(=O)N[C@@H](C(C)C)C(=O)N1)C(=O)O", "note": "[P01] (H-VSCEDCPEHCSTQKAQAKCDNDKCVCEPI-OH; disulfide 3-19, 6-24, 10-26 (inferred); N-terminus and C-terminus assumed)", "values": [{"measurement": "current density-voltage relationship compared with Leidab-7", "setting": "[1]", "result": "similar"}, {"measurement": "effect on migration", "setting": "[2]", "result": "no effect"}, {"measurement": "effect on adhesion", "setting": "[3]", "result": "not affected"}]}]}
